Experimental findings from US7300946B2, “N-(substituted arylmethyl)-4-(disubstituted methyl) piperidines and pyridines” (Bayer CropScience AG, priority 2002, dated 2007) are described below.

The experiment relates to tobacco budworm (Heliothis virescens [Fabricius]). In words: surface-treated diet test against the tobacco budworm. It is filed as in vivo. The note with it: tobacco budworm second instar larvae, 0.25 millimoles of candidate insecticide on the surface of the diet, five-day exposure; for Percent Mortality: compared to total number of insects infested; for Percent Growth Inhibition: inhibition of insect weight relative to untreated controls. Here is the method:
Candidate insecticides were evaluated for activity against the tobacco budworm (Heliothis virescens [Fabricius]) in a surface-treated diet test.
In this test one mL of molten (65–70° C.) wheat germ-based artificial diet was pipetted into each well of a four by six (24 well) multi-well plate (ID# 430345-15.5 mm dia.×17.6 mm deep; Corning Costar Corp., One Alewife Center, Cambridge, Mass. 02140). The diet was allowed to cool to ambient temperature before treatment with candidate insecticide.
For a determination of insecticidal activity, solutions of the candidate insecticides were prepared for testing using a Packard 204DT Multiprobe® Robotic System (Packard Instrument Company, 800 Research Parkway, Meriden, Conn. 06450), in which the robot first diluted a standard 50 millimolar DMSO solution of candidate insecticide with a 1:1 water/acetone solution (V/V) in a ratio of 1:7 stock solution to water/acetone. The robot subsequently pipetted 40 microliters of the so-prepared solution onto the surface of the diet in each of three wells in the 24 multi-well plate. The process was repeated with solutions of seven other candidate insecticides. Once treated, the contents of the multi-well plate were allowed to dry, leaving 0.25 millimoles of candidate insecticide on the surface of the diet, or a concentration of 0.25 millimolar. Appropriate untreated controls containing only DMSO on the diet surface were also included in this test. […]
In each well of the test plate was placed one second instar tobacco budworm larvea, each weighing approximately five milligrams. After the larvae were placed in each well, the plate was sealed with clear polyfilm adhesive tape. The tape over each well was perforated to ensure an adequate air supply. The plates were then held in a growth chamber at 25° C. and 60% relative humidity for five days (light 14 hours/day).
After the five-day exposure period insecticidal activity for each rate of application of candidate insecticide was assessed as percent inhibition of insect weight relative to the weight of insects from untreated controls, and percent mortality when compared to the total number of insects infested.
The test compounds of formula I are identified by numbers that correspond to those in Table 1.
These tests were conducted with 0.25 millimoles of candidate insecticide on the surface of the diet.

`Cn1nnc(-c2ccc(CN3CCC(C(NC(=O)c4ccc(Cl)cc4)c4ccc(OC(F)(F)F)cc4)CC3)cc2)n1` (centres unmarked) [Compound 324]: where the note is “surface-treated diet”, the “Percent Mortality” value stood at 83% and the “Percent Growth Inhibition” value is 99%.

For `O=C(Nc1cccc(C(F)(F)F)c1)OC(c1ccc(F)cc1)C1CCN(Cc2ccc(Oc3ccccn3)cc2)CC1` (centres unmarked) [Compound 642], where the note is “surface-treated diet”, the “Percent Mortality” value came to 100% and the “Percent Growth Inhibition” value came out at 100%.

For the compound `Cn1nnc(-c2ccc(CN3CCC(C(NC(=O)Nc4ccc([N+](=O)[O-])cc4)c4ccc(OC(F)(F)F)cc4)CC3)cc2)n1` (centres unmarked) [Compound 346], for the setting “surface-treated diet”, the “Percent Mortality” value is listed as 100% and the “Percent Growth Inhibition” value is recorded as 100%. In the case of `O=C(Nc1ccc(F)cc1)OC(c1cccc(C(F)(F)F)c1)C1CCN(Cc2ccc(Oc3ccccn3)cc2)CC1` (centres unmarked) [Compound 653], where the note is “surface-treated diet”, the “Percent Mortality” value amounted to 100% and the “Percent Growth Inhibition” value came out at 100%. `CCn1nnc(-c2ccc(CN3CCC(C(OC(=O)Nc4cc(F)cc(F)c4)c4ccc(OC)c(OC)c4)CC3)cc2)n1` (centres unmarked) [Compound 609]: under “surface-treated diet”, the “Percent Mortality” value is given as 33% and the “Percent Growth Inhibition” value stood at 100%. The matching figures for `CCOC(=O)c1ccc(C[N+]2([O-])CCC(=C(c3ccc(C(F)(F)F)cc3)c3ccc(C(F)(F)F)cc3)CC2)cc1` (centres unmarked) [Compound 99]: 100% and 100%.

Take `CCn1nnc(-c2ccc(CN3CCC(C(OC(=O)Nc4ccc(C(F)(F)F)cc4)c4cc(F)cc(F)c4)CC3)cc2)n1` (centres unmarked) [Compound 594]: where the note is “surface-treated diet”, the “Percent Mortality” value worked out at 100% and the “Percent Growth Inhibition” value stood at 100%. `CNC(=O)Oc1ccc(CN2CCC(=C(c3ccc(OC(F)(F)F)cc3)c3ccc(OC(F)(F)F)cc3)CC2)cc1` [Compound 791]: the “Percent Mortality” value was determined as 100% and the “Percent Growth Inhibition” value amounted to 100%.

On to `CCCOc1ccc(CN2CCC(=C(c3ccc(O)cc3)c3ccc(O)cc3)CC2)cc1` [Compound 44], for which, for the setting “surface-treated diet”, the “Percent Mortality” value turned out to be 67% and the “Percent Growth Inhibition” value worked out at 100%. Regarding `Cn1nnc(-c2ccc(CN3CCC(C(NC(=O)c4cccc(F)c4)c4ccc(OC(F)(F)F)cc4)CC3)cc2)n1` (centres unmarked) [Compound 327], for the setting “surface-treated diet”, the “Percent Mortality” value stood at 0% and the “Percent Growth Inhibition” value stood at 99%. Consider `Fc1cccc(C(=C2CCN(Cc3ccc(Oc4ncccn4)cc3)CC2)c2ccc(C(F)(F)F)cc2)c1` [Compound 817], for which the “Percent Mortality” value came to 100% and the “Percent Growth Inhibition” value was determined as 100%.

On to `O=C(Nc1ccc(C(F)(F)F)cc1)OC(c1ccc(Cl)cc1)C1CCN(Cc2ccc(Oc3ccccn3)cc2)CC1` (centres unmarked) [Compound 635], for which, where the note is “surface-treated diet”, the “Percent Mortality” value stood at 100% and the “Percent Growth Inhibition” value came out at 100%. Consider `COc1ccc(C(=C2CC[N+]([O-])(Cc3ccc(NC(=O)OC(C)C)cc3)CC2)c2ccc(OC)cc2)cc1` (centres unmarked) [Compound 835], for which the “Percent Mortality” value is listed as 0% and the “Percent Growth Inhibition” value is reported as 80%. With `CCON=Cc1ccc(CN2CCC(C(OC(=O)Nc3ccc(F)c(F)c3)c3ccc(C(F)(F)F)cc3)CC2)cc1` (centres unmarked) [Compound 196], for the setting “surface-treated diet”, the “Percent Mortality” value came to 100% and the “Percent Growth Inhibition” value is reported as 100%. Regarding `CCn1nnc(-c2ccc(CN3CCC(C(OC(=O)Nc4ccc(Cl)cc4)c4ccc(Cl)c(Cl)c4)CC3)cc2)n1` (centres unmarked) [Compound 572], under “surface-treated diet”, the “Percent Mortality” value stood at 100% and the “Percent Growth Inhibition” value is 100%.

`COC(=O)Nc1ccc(CN2CCC(C(OC(=O)Nc3cc(F)cc(F)c3)c3ccc(C(F)(F)F)cc3)CC2)cc1` (centres unmarked) [Compound 498]: under “surface-treated diet”, the “Percent Mortality” value amounted to 100% and the “Percent Growth Inhibition” value was 100%. In the case of `COc1cccc(NC(=O)OC(c2ccc(Cl)c(Cl)c2)C2CCN(Cc3ccc(Oc4ccccn4)cc3)CC2)c1` (centres unmarked) [Compound 648], the “Percent Growth Inhibition” value (surface-treated diet) is reported as 100%. In the case of `Cn1nnc(-c2ccc(CN3CCC(C(NC(=O)Nc4cccc(Cl)c4)c4ccc(OC(F)(F)F)cc4)CC3)cc2)n1` (centres unmarked) [Compound 335], under “surface-treated diet”, the “Percent Mortality” value is 100% and the “Percent Growth Inhibition” value came out at 100%. Consider `CCn1nnc(-c2ccc(CN3CCC(=C(c4ccc(F)cc4)c4ccc(F)cc4)CC3)cc2)n1` [Compound 78], for which, for the setting “surface-treated diet”, the “Percent Mortality” value was 67% and the “Percent Growth Inhibition” value is listed as 100%.

Take `O=C(Nc1ccc(F)cc1)OC(c1ccc(Cl)cc1)C1CCN(Cc2ccc(Oc3ccccn3)cc2)CC1` (centres unmarked) [Compound 630]: for the setting “surface-treated diet”, the “Percent Mortality” value was found to be 100% and the “Percent Growth Inhibition” value came to 100%. Turning to `O=C(Nc1ccc(Cl)cc1)OC(c1ccc(C(F)(F)F)cc1)C1CCN(Cc2ccc(Oc3ccc(Cl)nn3)cc2)CC1` (centres unmarked) [Compound 737], the “Percent Mortality” value was determined as 100% and the “Percent Growth Inhibition” value is 100%. For `CCON=Cc1ccc(CN2CCC(C(OC(=O)Nc3ccc(Cl)cc3)c3cc(Cl)cc(Cl)c3)CC2)cc1` (centres unmarked) [Compound 532], under “surface-treated diet”, the “Percent Mortality” value is reported as 100% and the “Percent Growth Inhibition” value is recorded as 100%.

On to `Cn1nnc(-c2ccc(CN3CCC(C(NCc4ccc([N+](=O)[O-])cc4)c4ccc(OC(F)(F)F)cc4)CC3)cc2)n1` (centres unmarked) [Compound 320], for which, for the setting “surface-treated diet”, the “Percent Mortality” value came out at 100% and the “Percent Growth Inhibition” value is reported as 100%. On to `FC(F)(F)c1ccc(C(=C2CCN(Cc3ccc(Oc4ccc(Cl)nn4)cc3)CC2)c2ccc(C(F)(F)F)cc2)cc1` [Compound 826], for which the “Percent Mortality” value worked out at 100% and the “Percent Growth Inhibition” value turned out to be 100%.

Consider `CCn1nnc(-c2ccc(CN3CCC(C(OC(=O)Nc4ccc(Cl)cc4)c4ccc(OC(F)(F)F)cc4)CC3)cc2)n1` (centres unmarked) [Compound 267], for which, under “surface-treated diet”, the “Percent Mortality” value amounted to 100% and the “Percent Growth Inhibition” value is on record as 100%. Turning to `O=C(Nc1cc(F)cc(F)c1)OC(c1ccc(C(F)(F)F)cc1)C1CCN(Cc2ccc(Oc3c(F)cccc3F)cc2)CC1` (centres unmarked) [Compound 548], where the note is “surface-treated diet”, the “Percent Mortality” value is listed as 100% and the “Percent Growth Inhibition” value came out at 100%.

As for `C=CCOC(c1ccc(C(F)(F)F)cc1)C1CCN(Cc2ccc(Oc3ccccn3)cc2)CC1` (centres unmarked) [Compound 769], the “Percent Mortality” value is reported as 0% and the “Percent Growth Inhibition” value is given as 13%. Regarding `O=C(Nc1ccc(F)cc1)OC(c1ccc(OC(F)(F)F)cc1)C1CCN(Cc2ccccc2)CC1` (centres unmarked) [Compound 458], where the note is “surface-treated diet”, the “Percent Mortality” value is reported as 0% and the “Percent Growth Inhibition” value is 94%. For `CCCOc1ccc(CN2CCC(C(OC(=O)Nc3cccc(C(F)(F)F)c3)c3ccc(F)cc3)CC2)cc1` (centres unmarked) [Compound 477] the same measures were 100% and 100%. On to `O=C(Nc1ccc(Cl)cc1)OC(c1ccc(Cl)c(Cl)c1)C1CCN(Cc2ccc(Oc3ncccn3)cc2)CC1` (centres unmarked) [Compound 721], for which the “Percent Mortality” value was found to be 100% and the “Percent Growth Inhibition” value amounted to 100%. With `CCn1nnc(-c2ccc(CN3CCC(C(OCc4ccc(OC(F)(F)F)cc4)c4ccc(OC(F)(F)F)cc4)CC3)cc2)n1` (centres unmarked) [Compound 305], for the setting “surface-treated diet”, the “Percent Mortality” value is listed as 100% and the “Percent Growth Inhibition” value came out at 95%. The matching figures for `O=C(Nc1cccnc1)OC(c1ccc(C(F)(F)F)cc1)C1CCN(Cc2ccc(Oc3ccccn3)cc2)CC1` (centres unmarked) [Compound 444]: 0% and 96%. Consider `O=C(Nc1ccc(Cl)cc1)OC(c1ccc(Cl)cc1)C1CCN(Cc2ccc(Oc3ncccn3)cc2)CC1` (centres unmarked) [Compound 712], for which the “Percent Mortality” value is listed as 100% and the “Percent Growth Inhibition” value was found to be 100%.
